# Measurements published in publication PMC10185535, “Structural insights into cardiolipin replacement by phosphatidylglycerol in a cardiolipin-lacking yeast respiratory supercomplex” (Nature Communications, 2023).
# T1: Cor1, subunit of CIII (S. cerevisiae (endogenous in strain …, UniProt P07256 27-457))
# T1 construct: Cor1, subunit of complex III, S. cerevisiae; source: endogenous, mitochondria of S. cerevisiae strain USY00b; within the purified III2IV2 SC (sucrose gradient)
# T1 sequence (looked up): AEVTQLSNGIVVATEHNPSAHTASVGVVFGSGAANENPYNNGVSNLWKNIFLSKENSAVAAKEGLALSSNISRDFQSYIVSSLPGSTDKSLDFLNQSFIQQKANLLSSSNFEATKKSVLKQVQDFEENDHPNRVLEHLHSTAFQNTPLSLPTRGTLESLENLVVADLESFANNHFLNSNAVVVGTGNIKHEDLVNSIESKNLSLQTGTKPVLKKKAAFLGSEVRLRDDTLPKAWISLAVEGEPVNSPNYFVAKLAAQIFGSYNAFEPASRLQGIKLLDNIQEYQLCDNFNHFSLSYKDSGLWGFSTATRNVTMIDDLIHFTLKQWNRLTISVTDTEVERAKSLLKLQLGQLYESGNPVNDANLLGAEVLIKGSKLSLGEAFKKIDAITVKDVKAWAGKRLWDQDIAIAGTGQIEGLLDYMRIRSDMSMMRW
# How the values were obtained:
# [1] = system: T2, WT SC (IV1III2IV1; III2IV2 tetrameric respiratory supercomplex); test: cryo-EM structure […] Å; assay type: binding, Saccharomyces cerevisiae; settings: Qi and Qo sites of complex III; Cob, Rip1 His181 (Qo); copurified endogenous
# T2 construct: gene COB; native tetramer (complex III dimer flanked by two complex IV), digitonin extract of mitochondria, FoF1-ATPase removed, sucrose gradient; no tag on the supercomplex; with Cytochrome b-c1 complex subunit 2, mitochondrial; Cytochrome b-c1 complex subunit 6, mitochondrial; Cytochrome b-c1 complex subunit 9, mitochondrial; Cytochrome b-c1 complex subunit 10, mitochondrial; Cytochrome c oxidase subunit 2; Cytochrome c oxidase subunit 3; Cytochrome c oxidase subunit 4, mitochondrial; Cytochrome c oxidase subunit 5A, mitochondrial; Cytochrome c oxidase subunit 6, mitochondrial; Cytochrome c oxidase subunit 7, mitochondrial; Cytochrome c oxidase subunit 8, mitochondrial; Cytochrome c oxidase subunit 9, mitochondrial; Cytochrome c oxidase subunit 12, mitochondrial; Cytochrome c oxidase subunit 13, mitochondrial; Cytochrome c oxidase subunit 26, mitochondrial
# [2] = system: T3, CRD1∆ SC (III2IV1 trimeric respiratory supercomplex); test: cryo-EM structure […] Å; assay type: binding, Saccharomyces cerevisiae; settings: Qi sites of complex III only (Cob); endogenous
# T3 construct: gene COB; native trimer (complex III dimer plus one complex IV) from cardiolipin-lacking strain, Cox4 with C-terminal His10, subunit Qcr10 lost; digitonin, His-Trap and SEC; with Cytochrome b-c1 complex subunit 1, mitochondrial; Cytochrome b-c1 complex subunit 2, mitochondrial; Cytochrome b-c1 complex subunit 6, mitochondrial; Cytochrome b-c1 complex subunit 7, mitochondrial; Cytochrome b-c1 complex subunit 9, mitochondrial; Cytochrome c oxidase subunit 2; Cytochrome c oxidase subunit 3; Cytochrome c oxidase subunit 4, mitochondrial; Cytochrome c oxidase subunit 6, mitochondrial; Cytochrome c oxidase subunit 7, mitochondrial; Cytochrome c oxidase subunit 8, mitochondrial; Cytochrome c oxidase subunit 9, mitochondrial; Cytochrome c oxidase subunit 12, mitochondrial; Cytochrome c oxidase subunit 13, mitochondrial; Cytochrome c oxidase subunit 26, mitochondrial
# [3] = target: complex III2 (CIII) of the trimeric supercomplex (III2IV1) from the cardiolipin-lacking CRD1∆ S. cerevisiae mutant (S. cerevisiae (endogenous in strain YEB100)) (UniProt P07256); test: cryo-EM structure; trimeric SC (III2IV1) from the CRD1∆ strain, purified by His-Trap (Cox4-His10) and Superose 6 in 0.05% digitonin; Titan Krios, with added 30° tilt data; 3.3 Å
# [4] = target: complex III2 (CIII, dimer of cytochrome bc1) of the wild type S. cerevisiae respiratory supercomplex (S. cerevisiae (endogenous in strain USY00b)) (UniProt P07256); test: cryo-EM structure; WT tetrameric SC (IV1III2IV1) purified by sucrose gradient in digitonin, diluted 1:9 in 15 mM Tris-HCl pH 7.2, 20 mM KCl; Titan Krios 300 kV; 3.2 Å
# [5] = system: T3, CRD1∆ SC (III2IV1 trimeric respiratory supercomplex); test: oxygen consumption, Oroboros respirometry; assay type: biochemical, Saccharomyces cerevisiae; settings: 100 μM DQH2, 50 μM cytochrome c, 0.05% digitonin, pH 7.1, 30 °C
# [6] = system: T2, WT SC (IV1III2IV1; III2IV2 tetrameric respiratory supercomplex); test: oxygen consumption, Oroboros respirometry; assay type: biochemical, Saccharomyces cerevisiae; settings: 100 μM DQH2, 50 μM cytochrome c, 0.05% digitonin, pH 7.1, 30 °C
# Cor1, subunit of CIII = target: T1, Cor1, subunit of CIII; test: cryo-EM structure; WT tetrameric SC (IV1III2IV1) purified by sucrose gradient in digitonin, diluted 1:9 in 15 mM Tris-HCl pH 7.2, 20 mM KCl; Titan Krios 300 kV; 3.2 Å; settings: both partners purified
molecule,measurement,setting,value
COC1=C(OC)C(=O)C(C/C=C(\C)CC/C=C(\C)CC/C=C(\C)CC/C=C(\C)CC/C=C(\C)CCC=C(C)C)=C(C)C1=O [UQ6],cryo-EM structure 3.2 Å,[1],"four UQ6 ligands were placed into the map, two in each monomer of CIII"
same,cryo-EM structure 3.3 Å,[2],Densities for UQ6 were found only at Qi sites
complex III2 (CIII) of the trimeric supercomplex (III2IV1) from the cardiolipin-lacking CRD1∆ S. cerevisiae mutant (from UniProt P07256 27-457; P00163 1-385; P07143 62-309; P08067 31-215; P00128 1-127; P08525 1-94; P22289 1-66),stoichiometry N,[3],2
"complex III2 (CIII, dimer of cytochrome bc1) of the wild type S. cerevisiae respiratory supercomplex (from UniProt P07256 27-457; P00163 1-385; P07143 62-309; P08067 31-215; P00128 1-127; P08525 1-94; P22289 1-66; P37299 1-77)",stoichiometry N,[4],2
CCCCCCCCCCc1c(C)c(O)c(OC)c(OC)c1O [reduced decylubiquinone],"oxygen consumption, Oroboros respirometry",[5],"Due to limited amounts of the ∆CRD1 SC, only one determination was possible"
same,"oxygen consumption, Oroboros respirometry",[6],purified WT SC supplemented with Cyt c and reduced decylubiquinone (DQH2) also displayed similar activity
"Cox5a, subunit of CIV (natural protein, UniProt P00424 21-153, looked up, Cox5a, subunit of complex IV, S. cerevisiae; source: endogenous, mitochondria of S. cerevisiae strain USY00b; within the purified III2IV2 SC (sucrose gradient)) AQTHALSNAAVMDLQSRWENMPSTEQQDIVSKLSERQKLPWAQLTEPEKQAVWYISYGEWGPRRPVLNKGDSSFIAKGVAAGLLFSVGLFAVVRMAGGQDAKTMNKEWQLKSDEYLKSKNANPWGGYSQVQSK",binding result,"Cor1, subunit of CIII",binds
